# System: MAGI-CCR5 cells, HIV-1 Ba-L, beta-gal luminescence, 48 h
# Test: inhibitors of R5 HIV-1 replication in MAGI cells – MAGI-CCR5 cells, HIV-1 Ba-L, 2% serum, set 4, dose response (AID 504553)
row,IC50 [µM],SMILES
1,19,Cc1c2c(=O)n(-c3nc4ccccc4s3)nc-2cc(O)n1CCc1cccs1
2,6.99,Cc1c2c(=O)n(-c3nc4ccccc4s3)nc-2cc(O)n1C1CC1
3,29.2,COc1ccc(Cn2c(O)cc3nn(-c4nc5ccccc5s4)c(=O)c-3c2C)cc1
4,9.35,Cc1c2c(=O)n(-c3nc4ccccc4s3)nc-2cc(O)n1CCC(C)C
5,4.64,COc1ccc(CCn2c(O)cc3nn(-c4nc5ccccc5s4)c(=O)c-3c2C)cc1
6,7.43,Cc1c2c(=O)n(-c3nc4ccccc4s3)nc-2cc(O)n1Cc1cccs1
7,3.53,Cc1c2c(=O)n(-c3nc4ccccc4s3)nc-2cc(O)n1Cc1ccc(F)cc1
8,9.51,Cc1c2c(=O)n(-c3nc4ccccc4s3)nc-2cc(O)n1Cc1ccncc1
9,23,Cc1c2c(=O)n(-c3nc4ccccc4s3)nc-2cc(O)n1CCc1ccc(O)cc1
10,6.07,Cc1c2c(=O)n(-c3nc4ccccc4s3)nc-2cc(O)n1Cc1cccnc1
11,19.6,COc1ccccc1Cn1c(O)cc2nn(-c3nc4ccccc4s3)c(=O)c-2c1C
12,9.28,Cc1c2c(=O)n(-c3nc4ccccc4s3)nc-2cc(O)n1Cc1ccccc1
13,3.39,Cc1c2c(=O)n(-c3nc4ccccc4s3)nc-2cc(O)n1Cc1ccccc1Cl

# From PubChem BioAssay AID504553 (Southern Research Specialized Biocontainment Screening …, 2011)
